Bounds are passed on as bounds.

Data on 14 compounds can be found in patent US20240217983A1, “GPR119 AGONISTS” (Kallyope, Inc., priority 2021, published 2024).

The target in the assay is T1, human GPR119 (hGPR119) (Homo sapiens, UniProt Q8TDV5).
T1 construct: expressed in transfected cells
T1 sequence (Q8TDV5 1-335): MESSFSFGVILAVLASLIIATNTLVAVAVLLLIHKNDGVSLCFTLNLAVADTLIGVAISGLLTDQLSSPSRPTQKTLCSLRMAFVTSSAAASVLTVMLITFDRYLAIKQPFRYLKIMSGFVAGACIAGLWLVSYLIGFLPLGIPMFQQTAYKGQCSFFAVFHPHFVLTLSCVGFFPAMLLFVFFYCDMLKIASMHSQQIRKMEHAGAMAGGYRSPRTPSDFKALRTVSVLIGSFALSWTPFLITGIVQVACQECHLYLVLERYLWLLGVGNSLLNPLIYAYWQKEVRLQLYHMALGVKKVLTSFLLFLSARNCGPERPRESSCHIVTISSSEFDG
Description: cAMP accumulation assay (Cisbio cAMP Gs dynamic HTRF kit) in CHO-K1 cells stably expressing human GPR119. The assay is classed as cell-based. The following applies: 4-parameter fit; for Emax: 1 h, % activity normalized to Max and Min controls; for EC50: 60 minutes at 37° C. On the procedure:
CHO-K1 cells stably expressing human GPR119 (hGPR119) were prepared by transfection of a GPR119-carrying plasmid using Lipofectamine 2000 (following manufacturer instructions). A stable cell line was established using the limiting dilution method with geneticine selection. Assay-ready frozen (ARF) cells were prepared and used throughout the study.
The assay was performed in a 384-well plate format using the cAMP Gs dynamic assay kit from Cisbio. ARF cells expressing hGPR119 were thawed, washed and then resuspended in cAMP stimulation buffer at a cell density of 1.1×10^6 cells/mL. Cells were plated at a density of ˜10,000 cells/well (9 μL/well). Dose response curves for the tested compounds were prepared in a cAMP stimulation buffer, containing 0.1% Tween 80 at 4 fold the final concentration. The compounds were then transferred to the cell plates using BRAVO (3 μL/well) and the plates were incubated for 60 minutes at 37° C./5% CO2. Detection buffer (10 μL, prepared as described in the cAMP Gs dynamic kit) were added to each well, and the plates were incubated at ambient temperature for 1 hr.
RT-FRET was measured using a ClarioSTAR plate reader, calculating the ratio between emissions at 665 nm and 620 nm (HTRF ratio). The HTRF ratio for positive (Max) and negative (Min) controls were used to normalize HTRF data and generate values for % activity. EC50 and Max activity values were determined using a standard 4-parameter fit.
A general note: cAMP levels reflect the balance of adenylyl cyclase and phosphodiesterase activity.

As to `O=C(Cc1ccc(OCCCC2CCN(c3ncc(Cl)cn3)CC2)cc1F)N1C[C@@H]2CCN(C[C@H](O)[C@@H](O)[C@H](O)[C@H](O)CO)[C@@H]2C1` [Example 35, 2-(4-(3-(1-(5-chloropyrimidin-2-yl)piperidin-4-yl)propoxy)-2-fluorophenyl)-1-((3aS,6aS)-1-((2S,3R,4R,5R)-2,3,4,5,6-pentahydroxyhexyl)hexahydropyrrolo[3,4-b]pyrrol-5(1H)-yl)ethan-1-one], the Emax was in the range of 100 to 130% and the concentration for a half-maximal effect (EC50) was at most 100 nM.

The compound `O=C(Cc1ccc(OCCCC2CCN(c3ncc(Cl)cn3)CC2)cc1F)N1C[C@H]2CN(C[C@H](O)[C@H](O)[C@H](O)CO)[C@H]2C1` [Example 36, 2-(4-(3-(1-(5-chloropyrimidin-2-yl)piperidin-4-yl)propoxy)-2-fluorophenyl)-1-((1R,5R)-6-((2S,3S,4R)-2,3,4,5-tetrahydroxypentyl)-3,6-diazabicyclo[3.2.0]heptan-3-yl)ethan-1-one] yielded an Emax of 100 to 130% and an EC50 of 100 to 1000 nM.

`O=C(Cc1ccc(OCCCC2CCN(c3ncc(Cl)cn3)CC2)cc1F)N1C[C@H]2CN(C[C@H](O)[C@@H](O)[C@H](O)[C@H](O)CO)[C@H]2C1` [Example 37, 2-(4-(3-(1-(5-chloropyrimidin-2-yl)piperidin-4-yl)propoxy)-2-fluorophenyl)-1-((1R,5R)-6-((2S,3R,4R,5R)-2,3,4,5,6-pentahydroxyhexyl)-3,6-diazabicyclo[3.2.0]heptan-3-yl)ethan-1-one] gave a maximal effect (Emax) of 100 to 130% and an EC50 of 100 to 1000 nM.

`O=C(Cc1ccc(OCCCC2CCN(c3ncc(Cl)cn3)CC2)cc1F)N1C[C@@H]2CN(C[C@H](O)[C@H](O)[C@H](O)CO)C[C@@H]21` [Example 38, 2-(4-(3-(1-(5-chloropyrimidin-2-yl)piperidin-4-yl)propoxy)-2-fluorophenyl)-1-((1S,5R)-3-((2S,3S,4R)-2,3,4,5-tetrahydroxypentyl)-3,6-diazabicyclo[3.2.0]heptan-6-yl)ethan-1-one] gave a maximal effect (Emax) of 100 to 130% and a concentration giving a half-maximal response (EC50) of at most 100 nM.

Regarding `O=C(Cc1ccc(OCCCC2CCN(c3ncc(Cl)cn3)CC2)cc1F)N1C[C@@H]2CN(C[C@H](O)[C@@H](O)[C@H](O)[C@H](O)CO)C[C@@H]21` [Example 39, 2-(4-(3-(1-(5-chloropyrimidin-2-yl)piperidin-4-yl)propoxy)-2-fluorophenyl)-1-((1S,5R)-3-((2S,3R,4R,5R)-2,3,4,5,6-pentahydroxyhexyl)-3,6-diazabicyclo[3.2.0]heptan-6-yl)ethan-1-one], the maximum response (Emax) was 100 to 130% and the EC50 is at most 100 nM.

Regarding `O=C(Cc1ccc(OCCCC2CCN(c3ncc(Cl)cn3)CC2)cc1F)N1CCC12CN(C[C@H](O)[C@H](O)[C@H](O)CO)C2` [Example 40, 2-(4-(3-(1-(5-chloropyrimidin-2-yl)piperidin-4-yl)propoxy)-2-fluorophenyl)-1-(6-((2S,3S,4R)-2,3,4,5-tetrahydroxypentyl)-1,6-diazaspiro[3.3]heptan-1-yl)ethan-1-one], the Emax lay in the range of 100 to 130% and the EC50 fell in the range of 100 to 1000 nM.

Consider `O=C(Cc1ccc(OCCCC2CCN(c3ncc(Cl)cn3)CC2)cc1F)N1CCC12CN(C[C@H](O)[C@@H](O)[C@H](O)[C@H](O)CO)C2` [Example 41, 2-(4-(3-(1-(5-chloropyrimidin-2-yl)piperidin-4-yl)propoxy)-2-fluorophenyl)-1-(6-((2S,3R,4R,5R)-2,3,4,5,6-pentahydroxyhexyl)-1,6-diazaspiro[3.3]heptan-1-yl)ethan-1-one], for which the Emax was 100 to 130% and the EC50 is over 10000 nM.

In turn, `O=C(Cc1ccc(OCCCC2CCN(c3ncc(Cl)cn3)CC2)cc1F)N1CCC2(CCN(C[C@H](O)[C@H](O)[C@H](O)CO)C2)C1` (stereo partly drawn) [Example 42, 2-(4-(3-(1-(5-chloropyrimidin-2-yl)piperidin-4-yl)propoxy)-2-fluorophenyl)-1-(7-((2S,3S,4R)-2,3,4,5-tetrahydroxypentyl)-2,7-diazaspiro[4.4]nonan-2-yl)ethan-1-one] returned an Emax of 100 to 130% and an EC50 of at most 100 nM.

`O=C(Cc1ccc(OCCCC2CCN(c3ncc(Cl)cn3)CC2)cc1F)N1CCC2(CCN(C[C@H](O)[C@@H](O)[C@H](O)[C@H](O)CO)C2)C1` (stereo partly drawn) [Example 43, 2-(4-(3-(1-(5-chloropyrimidin-2-yl)piperidin-4-yl)propoxy)-2-fluorophenyl)-1-(7-((2S,3R,4R,5R)-2,3,4,5,6-pentahydroxyhexyl)-2,7-diazaspiro[4.4]nonan-2-yl)ethan-1-one] had an Emax of 100 to 130% and a concentration giving a half-maximal response (EC50) of at most 100 nM.

In turn, `O=C(Cc1ccc(OCCCC2CCN(c3ncc(Cl)cn3)CC2)cc1F)N1C[C@H]2CN(C[C@H](O)[C@H](O)[C@H](O)CO)C[C@H]2C1` [Example 44, 2-(4-(3-(1-(5-chloropyrimidin-2-yl)piperidin-4-yl)propoxy)-2-fluorophenyl)-1-((3aR,6aS)-5-((2S,3S,4R)-2,3,4,5-tetrahydroxypentyl)hexahydropyrrolo[3,4-c]pyrrol-2(1H)-yl)ethan-1-one] displayed a maximum response (Emax) of 100 to 130% and a 50% effective concentration (EC50) of at most 100 nM.

Consider `O=C(Cc1ccc(OCCCC2CCN(c3ncc(Cl)cn3)CC2)cc1F)N1C[C@H]2CN(C[C@H](O)[C@@H](O)[C@H](O)[C@H](O)CO)C[C@H]2C1` [Example 45, 2-(4-(3-(1-(5-chloropyrimidin-2-yl)piperidin-4-yl)propoxy)-2-fluorophenyl)-1-((3aR,6aS)-5-((2S,3R,4R,5R)-2,3,4,5,6-pentahydroxyhexyl)hexahydropyrrolo[3,4-c]pyrrol-2(1H)-yl)ethan-1-one], for which the Emax lay within 100 to 130% and the EC50 was at most 100 nM.

The compound `O=C(Cc1ccc(OCCCC2CCN(c3ncc(Cl)cn3)CC2)cc1F)N1C[C@H]2C[C@@H]1CN2C[C@H](O)[C@H](O)[C@H](O)CO` [Example 46, 2-(4-(3-(1-(5-chloropyrimidin-2-yl)piperidin-4-yl)propoxy)-2-fluorophenyl)-1-((1R,4R)-5-((2S,3S,4R)-2,3,4,5-tetrahydroxypentyl)-2,5-diazabicyclo[2.2.1]heptan-2-yl)ethan-1-one] showed an Emax of at least 130% and an EC50 of at most 100 nM.

`O=C(Cc1ccc(OCCCC2CCN(c3ncc(Cl)cn3)CC2)cc1F)N1C[C@H]2C[C@@H]1CN2C[C@H](O)[C@@H](O)[C@H](O)[C@H](O)CO` [Example 47, 2-(4-(3-(1-(5-chloropyrimidin-2-yl)piperidin-4-yl)propoxy)-2-fluorophenyl)-1-((1R,4R)-5-((2S,3R,4R,5R)-2,3,4,5,6-pentahydroxyhexyl)-2,5-diazabicyclo[2.2.1]heptan-2-yl)ethan-1-one] yielded a maximum response (Emax) of 100 to 130% and a concentration for a half-maximal effect (EC50) of at most 100 nM.

Take `O=C(Cc1ccc(OCCCC2CCN(c3ncc(Cl)cn3)CC2)cc1F)N1CC2CC(C1)N2C[C@H](O)[C@H](O)[C@H](O)CO` [Example 48, 2-(4-(3-(1-(5-chloropyrimidin-2-yl)piperidin-4-yl)propoxy)-2-fluorophenyl)-1-(6-((2S,3S,4R)-2,3,4,5-tetrahydroxypentyl)-3,6-diazabicyclo[3.1.1]heptan-3-yl)ethan-1-one]: the Emax was at least 130% and the EC50 is at most 100 nM.

A word on the Emax: it is the maximal effect, on the per cent scale that the assay sets. In general, EC50 refers to the concentration that produces a half-maximal response.
